Earlier results as cited in patent publication US20260248735A1, “A METHOD FOR PREPARING MICROPARTICLES FOR DRUG DELIVERY” (Danmarks Tekniske Universitet, priority 2023, published 2026).

Details: as characterised by BCS class

## calcitonin
  solubility: high
